Test results reported in article PMC10451377, “Rationally Designed Pyrimidine Compounds: Promising Novel Antibiotics for the Treatment of Staphylococcus aureus-Associated Bovine Mastitis” (Antibiotics, 2023).
In brackets after ≈: the same amount, converted by molar mass. Entries after “also recorded” stand apart in the source; their conditions may differ.

Assays:
[1] = Initial safety assessment in cows; format: in vivo; settings: single intramammary infusion of 100, 250 or 500 mg
Procedure: (§1) The innocuity of PC206 was evaluated in cows, as previously described for other test substances. Following morning milking, each of the four mammary gland quarters […] was infused with various doses of PC206 (100, 250, 500 mg) or saline as a negative control. […] Cows were milked using an individual quarter-milking unit in order to measure individual quarter-milk production. PC206 concentration in milk was also measured; milk samples were diluted with an equal volume of isopropanol and washed 3 times with hexane. PC206 was extracted using ethyl acetate, filtered on Na2SO4, and evaporated. The dried samples were diluted 80:20 in ACN:H2O containing an internal standard. The content of PC206 was determined using single-ion monitoring (SIMS) on UPLC-MS.

[2] = Recovery of PC206 from quarter milk after intramammary infusion; format: in vivo; settings: cows
Procedure: as §1

[3] = system: Escherichia coli ATCC 35695; experiment: Broth microdilution MIC; settings: ATCC35695, read-out: Broth Microdilution MIC
[4] = system: Staphylococcus aureus CMRSA-10; experiment: Broth microdilution MIC; format: cell-based; settings: CMRSA10, S. aureus CMRSA-10, read-out: Broth Microdilution MIC
Text: (§2) Reference strains for this study (S. aureus ATCC 29213, ATCC 29740 [bovine mastitis strain Newbould], S. epidermidis ATCC 12228, E. coli ATCC 35695, E. faecalis ATCC 29212) were obtained from the American Type Culture Collection (ATCC, Rockville, MD). S. aureus strains CMRSA-10 and CMRSA-2 were obtained from the Laboratoire de santé publique du Québec (LSPQ, Sainte-Anne-de-Bellevue, QC, Canada) and are Canadian CA-MRSA USA-300 and HA-MRSA USA-100 clones, respectively. The strain E. coli imp4213 (lptD), used as a control in MIC assays, is a derivative of E. coli ATCC 35695 (E. coli MC4100) with an increased membrane permeability. […] Other MRSA strains used in this study are clinical isolates of human origin obtained from the microbiology laboratory of the Centre Hospitalier Universitaire de Sherbrooke (CHUS, Sherbrooke, QC, Canada). Bovine mastitis strains (S. aureus, S. chromogenes, S. haemolyticus, S. hominis, S. simulans) were obtained from the Canadian Bovine Mastitis and Milk Quality Research Network (CBRQMN, St-Hyacinthe, QC, Canada). Among these strains, S. aureus 2117 is a high producer of biofilm and was used in the biofilm-eradication assay. S. epidermidis isolates were provided by Centre de Recherche en Infectiologie (CRI) de Québec (Québec, QC, Canada).

[5] = system: Staphylococcus aureus CMRSA-2; experiment: Broth microdilution MIC; format: cell-based; settings: CMRSA2, S. aureus CMRSA-2, read-out: Broth Microdilution MIC
Text: as §2

[6] = system: Staphylococcus aureus ATCC 29213; experiment: Broth microdilution MIC; settings: ATCC29213, read-out: Broth Microdilution MIC
[7] = system: Escherichia coli ΔlptD4213; experiment: microbe, parasite or virus in culture; format: cell-based; settings: read-out: Broth Microdilution MIC
Text: as §2

## CCCCCCNc1cc(N)nc(N)n1 [PC206]
[1]
  Body temperature: around 38 °C
  Redness or swelling of quarters at milking: Neither redness nor swelling was observed
[1]; 69 h
  Somatic cell counts and quarter-milk production: remained unaffected; also recorded: did not impact somatic cells count
[2]; single intramammary infusion of 100 mg
  Time the concentration in quarter milk remained above the MIC (8 µg/mL): over 2 h
[2]; single intramammary infusion of 250 mg
  Time the concentration in quarter milk remained above the MIC (8 µg/mL): > 4 h
[2]; single intramammary infusion of 500 mg
  Time the concentration in quarter milk remained above the MIC (8 µg/mL): about 8 h
[3]
  MIC: > 128 µg/mL
[4]
  MIC: 4 µg/mL (≈ 19.1 µM)
[5]
  MIC: 8 µg/mL (≈ 38.2 µM)
[6]
  MIC: 8 µg/mL (≈ 38.2 µM)
[7]
  MIC: > 128 µg/mL
